Patent publication US20180177219A1, “FAST-DISSOLVING CO-CRYSTALLINE LACTOSE” (NESTEC S.A., priority 2015, published 2018)

How the values were obtained:
Assay type in all cases: physicochemical
[1] = Dissolution kinetics by online refractometry (normalized refractive index), stirred; conditions: particle size 60-90 μm; for amount of solid dissolved in water within 20 seconds: 60 ml, stirring 500 rpm, ambient temperature (20° C.)
Description: Dissolution kinetics were measured by online-refractometry in water over a time period of 0 to 100 seconds while stirring at 500 rpm at ambient temperature (20° C.).
The dissolution kinetics of 2 g of lactose.CaCl2.7 H2O co-crystals in water (♦) in comparison to 1.24 g of pure lactose monohydrate in water (▪), 1.24 g of lactose monohydrate in 0.52 g calcium chloride solution (▴) and a physical mixture of 1.24 g of lactose monohydrate and 0.52 g of calcium chloride dihydrate in water (X) were measured by refractometry at room temperature over a time period of 0 to 100 seconds while stirring the solution.

[2] = Dissolution of an individual crystal filmed under a microscope, no agitation; conditions: room temperature; for time to complete dissolution of an individual crystal: crystals comparable in size and morphology
Description: The dissolution of the individual crystals was filmed under a microscope using a high-resolution camera and film-stills of the progressing dissolution were analyzed (area of remaining solid material) until complete dissolution was achieved.
Dissolution kinetics were measured over a time period of 0 to 36 seconds.
The dissolution kinetics of an individual α-lactose.CaCl2.7 H2O co-crystal (▪) in comparison to α-lactose monohydrate (▴) in water were determined. Dissolution kinetics were measured over a time period of 0 to 36 seconds at room temperature without stirring.

[3] = Dynamic vapor sorption (moisture tolerance); conditions: 25° C., 120 hours, relative humidity augmented stepwise
Description: The physical mixture contains the same molar quantities of lactose and calcium chloride as compared to the co-crystalline material. The straight (horizontal) line corresponds to an uptake of five equivalents of water. dm: mass gain in percent; RH: relative humidity in percent.
Dynamic vapor sorption experiments were performed for lactose.calcium salt co-crystals in comparison to a physical mixture of lactose monohydrate and calcium chloride dihydrate. The physical mixture contains the same molar quantities of lactose and calcium chloride as compared to the co-crystalline material.
Measurements were conducted over 120 hours at a temperature of 25° C. and relative humidity was augmented stepwise until the samples fully liquefied.

Row | SMILES | amount of solid dissolved in calcium chloride solution within 20 seconds ([1]; 1.24 g in 0.52 g calcium chloride solution, stirring, room temperature) | amount of solid dissolved in water within 20 seconds [1] | time for complete dissolution relative to lactose.CaCl2.7 H2O co-crystal (times as long) ([2]; individual crystal, liquid phase not agitated) | time to complete dissolution of an individual crystal ([2]; water, without stirring) | moisture absorption behaviour [3] | moisture tolerance compared to physical mixture of lactose monohydrate and calcium chloride dihydrate [3] | dissolution speed relative to lactose monohydrate (times faster) ([2]; individual crystal, water, without stirring)
1 | O.OC[C@H]1O[C@@H](O[C@H]2[C@H](O)[C@@H](O)C(O)O[C@@H]2CO)[C@H](O)[C@@H](O)[C@H]1O (stereo partly drawn) [lactose monohydrate, reference compound] | about 30% | about 20% | roughly seven | about 36 seconds |  |  | 
2 | O.O.O.O.O.O.O.OC[C@H]1O[C@@H](O[C@H]2[C@H](O)[C@@H](O)C(O)O[C@@H]2CO)[C@H](O)[C@@H](O)[C@H]1O.[Ca+2].[Cl-].[Cl-] (stereo partly drawn) [lactose.CaCl2.7 H2O co-crystals, lactose.calcium chloride.7 H2O] |  | about 85% |  | about 2.5 seconds | gradually continued to absorb moisture in parallel with augmentation of relative humidity | improved moisture tolerance | 14 to 15 times
